According to patent US20110166077A9, “COMBINED THERAPY AGAINST TUMORS COMPRISING SUBSTITUTED ACRYLOYL DISTAMYCIN DERIVATIVES AND RADIOTHERAPY” (Pharmacia Italia S.p.A., priority 2002, published 2011):
“And” between values parts separate entries of the source, which are not always exact repeats. Identical values can stand only once. Marks after values point to notes of the source that are not given here.

What was measured:
[1] = tested on: SQ20B (radiation-resistant human squamous cell carcinoma of the larynx) cell line; test: in vitro clonogenic assay, drug combined with ionizing radiation, SQ20B; assay type: cell-based; details: for C20 drug concentration corresponding to 20% cell survival / C80 drug concentration corresponding to 80% cell survival: drug alone, 2 h treatment; for Sensitization Ratio SR, Values for each culture: simultaneous schedule (2 h drug, 10 min irradiation at start of 2nd hour), SR<1 = radiosensitisation; for Sensitization Ratio SR, Mean of duplicates: simultaneous schedule
Description: (§1) The remarkable radiosensitisation effect exerted by the α-bromo- or α-chloro-acryloyl-distamycin derivatives, in particular the compounds of formula (I), is shown according to in vitro clonogenic assays on SQ20B (radiation-resistant human squamous cell carcinoma of the larynx) and A431 (human vulval carcinoma) cell lines. In this respect, two different schedule treatments were evaluated either comprising simultaneous exposure to the tested compound of formula (I) and to radiation, or sequential exposure to both these cytotoxic agents in any order, that is drug/radiation or radiation/drug (see details below). As control, the effect of cisplatin in combination with radiotherapy has been tested in the same operative conditions.
(§2) To define a Sensitization Ratio (SR), the clonogenic survival of cells being treated with a combination of irradiation and drug exposure (SX+D) was compared with the product of survival for drug alone (SD) and irradiation alone (SX), as follows SR=SX+D/SD*SX
(§3) From the above, it is clear to the skilled person that if both radiation and drug exerted their cytotoxic effect independently from each other, SR values would be close to 1 whereas, on the contrary, a radiosensitisation effect indicating a synergism between ionizing radiation and drug is characterized by SR values lower than 1 (SR<1).
(§4) For both compounds Compound A and cisplatin, exposures were simultaneous to ionizing radiation in both SQ20B and A431 cell lines. The schedule consisted of 2 h drug treatment with a period of irradiation (10 minutes) starting at the beginning of the 2nd hour of treatment.
(§5) Four data sets for each of Compound A and cisplatin, in each cell line were obtained (see table 1) comprising duplicates of two different drug concentration chosen to yield cytotoxicity values corresponding to 80% (C80) and 20% (C20) survival for treatment with the drug alone. […]

[2] = tested on: A431 (human vulval carcinoma) cell line; test: in vitro clonogenic assay, drug combined with ionizing radiation, A431; assay type: cell-based; details: for C20 drug concentration corresponding to 20% cell survival / C80 drug concentration corresponding to 80% cell survival: drug alone, 2 h treatment; for Sensitization Ratio SR, Values for each culture: simultaneous schedule (2 h drug, 10 min irradiation at start of 2nd hour), SR<1 = radiosensitisation; for Sensitization Ratio SR, Mean of duplicates: simultaneous schedule
Description: as §1, §2, §3, §4, §5

[3] = drug at C20 (Compound A 350 ng/ml, cisplatin 6.5 μM)
[4] = drug at C80 (Compound A 50 ng/ml, cisplatin 0.4 μM)
[5] = drug at C20 (Compound A 90 ng/ml, cisplatin 5.0 μM)
[6] = drug at C80 (Compound A 20 ng/ml, cisplatin 0.8 μM)

Compound	Sensitization Ratio SR / radiosensitisation effect ([1]; combination with radiotherapy, summary over concentrations)	C20 drug concentration corresponding to 20% cell survival [1]	C80 drug concentration corresponding to 80% cell survival [1]	Sensitization Ratio SR, Values for each culture ([1]; drug at C20 (Compound A 350 ng/ml, cisplatin 6.5 μM), hydrochloride)	Sensitization Ratio SR, Values for each culture ([1]; drug at C80 (Compound A 50 ng/ml, cisplatin 0.4 μM), hydrochloride)	Sensitization Ratio SR, Mean of duplicates [1, 3]	Sensitization Ratio SR, Mean of duplicates [1, 4]	C20 drug concentration corresponding to 20% cell survival [2]	C80 drug concentration corresponding to 80% cell survival [2]	Sensitization Ratio SR, Values for each culture ([2]; drug at C20 (Compound A 90 ng/ml, cisplatin 5.0 μM), hydrochloride)	Sensitization Ratio SR, Values for each culture ([2]; drug at C80 (Compound A 20 ng/ml, cisplatin 0.8 μM), hydrochloride)	Sensitization Ratio SR, Mean of duplicates [2, 5]	Sensitization Ratio SR, Mean of duplicates [2, 6]	Sensitization Ratio SR, Values for each culture [1, 3]	Sensitization Ratio SR, Values for each culture [1, 4]	Sensitization Ratio SR, Values for each culture [2, 5]	Sensitization Ratio SR, Values for each culture [2, 6]
C=C(Br)C(=O)Nc1cc(C(=O)Nc2cc(C(=O)Nc3cc(C(=O)Nc4cc(C(=O)NCCNC(=N)N)n(C)c4)n(C)c3)n(C)c2)n(C)c1.Cl [Compound A, N-[5-[[[5-[[[2-[(animoiminomethyl)amino]ethyl]amino]carbonyl]-1-methyl-1H-pyrrol-3-yl]amino]carbonyl]-1-methyl-1H-pyrrol-3-yl]-4-[[[4-[(2-bromo-1-oxo-2-propenyl)amino]-1-methyl-1H-pyrrol-2-yl]carbonyl]amino]-1-methyl-1H-pyrrole-2-carboxamide hydrochloride]	lower than 1	350 (C20)^(d) ng/ml	50 (C80)^(c) ng/ml	0.55 and 0.46	0.84 and 0.85	C20 0.50	C80 0.85	90 (C20) ng/ml	20 (C80) ng/ml	0.33 and 0.40	0.65 and 0.59	C20 0.37	C80 0.62	–	–	–	–
N.N.[Cl][Pt][Cl] [cisplatin, reference compound]	–	6.5 (C20) μM	0.4 (C80) μM	–	–	C20 0.77	C80 0.80	5.0 (C20) μM	0.8 (C80) μM	–	–	C20 0.97	C80 0.96	0.72 and 0.81	0.78 and 0.82	1.08 and 0.86	1.02 and 0.84
